According to patent publication EP0624368A2, “Use of a composition for stimulating the synthesis of glutathione in the manufacture of a medicament for the treatment of acquired immune deficiency syndrome” (priority 1993, dated 1994):

What was measured:
HIV-1 (strain IIIB) [1] = test: MTT assay of protection against acute HIV infection in MT-2 cells; assay type: cell-based; settings: 100 IU/well HIV; for OD readings at 540 nm (MTT assay): MT-2, Day 6 cultures; for Calculated single treatment ED50: MT-2 cells, MTT assay
From the text: (§1) Three cell culture systems were used in this study: H-9 cells; MT-2 cells; and normal human peripheral blood mononuclear cells (PBMC). H-9 cells were obtained from Advanced Biotechnology Inc. (ABI). MT-2 cells were obtained from Dr. J. Armstrong of the University of Pittsburgh. MT-2 cells are HTLV-I transformed human T lymphocytes and continuously produce HTLV-I virions. PBMC were obtained from healthy donors, purified by Ficol-Hypaque, and stimulated with PHA mitogen before being used in the efficacy studies. The initial stock of HIV-1 (strain IIIB) used in this study was obtained from ABI and the working stocks were produced.
(§2) Cells were collected, put into tissue culture plates and incubated with different concentrations of drugs in RPMI 1640 tissue culture medium for 20 minutes prior to HIV challenge. Infection was carried out by inoculating 20-100 HIV infectious units (IU)/well inoculum without removing the drugs. The untreated cells exposed to HIV challenge served as positive controls. The normal untreated uninfected cells served as negative controls.
(§3) Both the MTT assay and HIV p24 ELISA were used for evaluation of drug efficacies with MT-2 cells. The MTT assay is based upon the metabolic reduction of the MTT tetrazolium bromide dye in live cells. The OD readings (at 540 nm) obtained from the MTT assay are inversely correlated to the levels of cell mortality due to HIV infection or the cytotoxic effect of drugs. […] The HIV p24 antigen assay measures the level of HIV antigen present in the sample (i.e., culture supernatant).
(§4) When evaluating the efficacies of drugs in H-9 cells and PBMC systems, only HIV p24 assays were used. To calculate the ED₅₀ values, a second order linear regression was applied on the logarithm of the tested doses of different drugs against the OD readings obtained from either MTT assays or HIV p24 assays.

HIV-1 (strain IIIB) [2] = test: HIV p24 antigen assay in MT-2 cells (single and combination treatment); assay type: cell-based; settings: 20 IU/well HIV; for OD readings at 450 nm (HIV p24 antigen): MT-2; for Calculated single treatment ED50: MT-2 cells, p24 assay
From the text: as §1, §2, §3, §4
(§5) Cells were collected, put into tissue culture plates and incubated with different combinations of drugs for 20 minutes prior to HIV infection in the combined treatment studies. Infection was carried out by inoculating 20-100 HIV IU/well inoculum without removing the drugs. The inocula were the same as the ones used in the single drug treatment to obtain the ED₅₀ values. Both MTT assays and HIV p24 antigen assays were used in evaluation of drug effects in MT-2 cells but only HIV p24 antigen assays were used for H-9 cells or PBMC.
(§6) Therefore, if the CI is less than 1, it indicates synergism among the tested drugs. Similarly, if the CI is equal to 1, the effects are additive, while a CI value greater than 1 is indicative of an antagonistic effect.

HIV-1 (strain IIIB) [3] = test: HIV p24 antigen assay in H-9 cells (single and combination treatment); assay type: cell-based; settings: 80 IU/well HIV; for OD readings at 450 nm (HIV p24 antigen): H-9; for Calculated single treatment ED50: H-9 cells, p24 assay
From the text: as §1, §2, §4, §5, §6

HIV-1 (strain IIIB) [4] = test: HIV p24 antigen assay in PBMC (single and combination treatment); assay type: cell-based; settings: 50 IU/well HIV
From the text: as §1, §2, §4, §5, §6

PBMC = test: Toxicity study (median lethal dose) in PBMC; assay type: cell-based, human
Description: (§7) The median lethal doses (LD₅₀) of single treatment of Procysteine® were 5 mM with PBMC, 21 mM with H-9 cells, and 31 mM with MT-2 cells. […] Therefore, both 25 mM or 50 mM of Procysteine® could have caused significant cell mortality in the test cell systems. […] To avoid the misinterpretation of drug antiviral efficacy due to toxicity, an alternative design using lower concentrations of Procysteine® in the combination treatment was performed. […] The HIV p24 assays were performed for analysis.

H-9 cells = test: Toxicity study (median lethal dose) in H-9 cells; assay type: cell-based
Description: as §7

MT-2 cells = test: Toxicity study (median lethal dose) in MT-2 cells; assay type: cell-based, human
Description: as §7

H-9, MT-2, and PBMC = test: Toxicity study (median lethal dose), all three cell systems together; assay type: cell-based; settings: range over the cell systems studied in this protocol
Description: as §7

O=C1N[C@H](C(=O)O)CS1 [Procysteine®]
OD readings at 540 nm (MTT assay) (HIV-1 (strain IIIB) [1]; 0.023 mM): 0.392 | OD readings at 540 nm (MTT assay) (HIV-1 (strain IIIB) [1]; 0.23 mM): 0.265 | OD readings at 540 nm (MTT assay) (HIV-1 (strain IIIB) [1]; 0.93 mM): 0.283 | OD readings at 540 nm (MTT assay) (HIV-1 (strain IIIB) [1]; 3.75 mM): 0.270 | OD readings at 540 nm (MTT assay) (HIV-1 (strain IIIB) [1]; 15 mM): 0.308 | OD readings at 540 nm (MTT assay) (HIV-1 (strain IIIB) [1]; 60 mM): 0.350 | Calculated single treatment ED50 (HIV-1 (strain IIIB) [1]): 2.3e+13 mM | OD readings at 450 nm (HIV p24 antigen) (HIV-1 (strain IIIB) [2]; 0.023 mM): 3.269 | OD readings at 450 nm (HIV p24 antigen) (HIV-1 (strain IIIB) [2]; 0.23 mM): 3.712 | OD readings at 450 nm (HIV p24 antigen) (HIV-1 (strain IIIB) [2]; 0.93 mM): 3.762 | OD readings at 450 nm (HIV p24 antigen) (HIV-1 (strain IIIB) [2]; 3.75 mM): 3.649 | OD readings at 450 nm (HIV p24 antigen) (HIV-1 (strain IIIB) [2]; 15 mM): 2.825 | OD readings at 450 nm (HIV p24 antigen) (HIV-1 (strain IIIB) [2]; 60 mM): 1.675 | Calculated single treatment ED50 (HIV-1 (strain IIIB) [2]): 1613 mM | OD readings at 450 nm (HIV p24 antigen) (HIV-1 (strain IIIB) [3]; 0.023 mM): 4.133 | OD readings at 450 nm (HIV p24 antigen) (HIV-1 (strain IIIB) [3]; 0.23 mM): 4.133 | OD readings at 450 nm (HIV p24 antigen) (HIV-1 (strain IIIB) [3]; 0.93 mM): 4.133 | OD readings at 450 nm (HIV p24 antigen) (HIV-1 (strain IIIB) [3]; 3.75 mM): 4.133 | OD readings at 450 nm (HIV p24 antigen) (HIV-1 (strain IIIB) [3]; 15 mM): 4.099 | OD readings at 450 nm (HIV p24 antigen) (HIV-1 (strain IIIB) [3]; 60 mM): 0.767 | Calculated single treatment ED50 (HIV-1 (strain IIIB) [3]): 653 mM | OD readings at 450 nm (HIV p24 antigen) (HIV-1 (strain IIIB) [4]; 0.023 mM): 3.703 | OD readings at 450 nm (HIV p24 antigen) (HIV-1 (strain IIIB) [4]; 0.23 mM): 3.057 | OD readings at 450 nm (HIV p24 antigen) (HIV-1 (strain IIIB) [4]; 0.93 mM): 2.951 | OD readings at 450 nm (HIV p24 antigen) (HIV-1 (strain IIIB) [4]; 3.75 mM): 3.640 | OD readings at 450 nm (HIV p24 antigen) (HIV-1 (strain IIIB) [4]; 15 mM): 3.284 | OD readings at 450 nm (HIV p24 antigen) (HIV-1 (strain IIIB) [4]; 60 mM): 1.141 | Calculated single treatment ED50 (HIV-1 (strain IIIB) [4]; p24 assay): 378 mM | median lethal doses (LD50) (PBMC; single treatment): 5 mM | LD50 value (PBMC; with 1 µM of AZT): 8.3 mM | median lethal doses (LD50) (H-9 cells; single treatment): 21 mM | LD50 value (H-9 cells; with 1 µM of AZT): 30 mM | LD50 value (MT-2 cells; as quoted in the discussion of ddI combination treatment): 31 to 32 mM | median lethal doses (LD50) (MT-2 cells; single treatment): 31 mM | LD50 value (MT-2 cells; with 1 µM of AZT): 36 mM | median lethal doses (LD50) (H-9, MT-2, and PBMC): 5 to 30 mM

O=c1[nH]cnc2c1ncn2[C@H]1CC[C@@H](CO)O1 [ddI]
OD readings at 540 nm (MTT assay) (HIV-1 (strain IIIB) [1]; 0.25 μM): 0.551 | OD readings at 540 nm (MTT assay) (HIV-1 (strain IIIB) [1]; 1 μM): 0.603 | OD readings at 540 nm (MTT assay) (HIV-1 (strain IIIB) [1]; 4 μM): 0.561 | OD readings at 540 nm (MTT assay) (HIV-1 (strain IIIB) [1]; 16 μM): 0.880 | OD readings at 540 nm (MTT assay) (HIV-1 (strain IIIB) [1]; 64 μM): 1.135 | Calculated single treatment ED50 (HIV-1 (strain IIIB) [1]): 0.002778 mM | OD readings at 450 nm (HIV p24 antigen) (HIV-1 (strain IIIB) [2]; 0.25 μM): 3.351 | OD readings at 450 nm (HIV p24 antigen) (HIV-1 (strain IIIB) [2]; 1 μM): 3.025 | OD readings at 450 nm (HIV p24 antigen) (HIV-1 (strain IIIB) [2]; 4 μM): 0.710 | OD readings at 450 nm (HIV p24 antigen) (HIV-1 (strain IIIB) [2]; 16 μM): 1.167 | OD readings at 450 nm (HIV p24 antigen) (HIV-1 (strain IIIB) [2]; 64 μM): 1.131 | Calculated single treatment ED50 (HIV-1 (strain IIIB) [2]): 0.004069 mM | OD readings at 450 nm (HIV p24 antigen) (HIV-1 (strain IIIB) [3]; 0.25 μM): 3.984 | OD readings at 450 nm (HIV p24 antigen) (HIV-1 (strain IIIB) [3]; 1 μM): 1.542 | OD readings at 450 nm (HIV p24 antigen) (HIV-1 (strain IIIB) [3]; 4 μM): 0.772 | OD readings at 450 nm (HIV p24 antigen) (HIV-1 (strain IIIB) [3]; 16 μM): 0.716 | OD readings at 450 nm (HIV p24 antigen) (HIV-1 (strain IIIB) [3]; 64 μM): 0.329 | Calculated single treatment ED50 (HIV-1 (strain IIIB) [3]): 0.002424 mM | OD readings at 450 nm (HIV p24 antigen) (HIV-1 (strain IIIB) [4]; 0.25 μM): 2.730 | OD readings at 450 nm (HIV p24 antigen) (HIV-1 (strain IIIB) [4]; 1 μM): 2.658 | OD readings at 450 nm (HIV p24 antigen) (HIV-1 (strain IIIB) [4]; 4 μM): 0.672 | OD readings at 450 nm (HIV p24 antigen) (HIV-1 (strain IIIB) [4]; 16 μM): 0.212 | OD readings at 450 nm (HIV p24 antigen) (HIV-1 (strain IIIB) [4]; 64 μM): 0.098
